Results taken from US20260048003A1, “STABLE CYCLODEXTRIN FREE CARFILZOMIB FORMULATION” (AMGEN INC., priority 2020, published 2026).

Tests used:
Format in all cases: physicochemical
[1] = Organic water miscible solvent screening to dissolve CFZ-API at high concentration; settings: in NMP and DMSO
Description: Non-aqueous phase: (a) 200 mg/ml to 250 mg/ml of CFZ-API target concentration for the water miscible solvent screening; and (b) 20 to 50 mg/ml of CFZ-API target concentration for the co-solvent screening; and Aqueous phase: about 2 mg/ml target CFZ-API final concentration.
Since CFZ-API is extremely insoluble in water, various organic water miscible solvents were first screened to dissolve CFZ-API drug substance powder.

[2] = Aqueous phase solvents screening to dissolve CFZ-API to about 2 mg/ml (visual, RP-HPLC after filtration); settings: aqueous solution around pH 3.0 to 3.5 (methane sulfonic acid) with 10,000 MW PVP
Source text: In Step 1 of the flow scheme preparation, non-aqueous solvents consisting of water miscible organic solvents and a co-solvent system were first added to dissolve the CFZ-API solid due its very low water solubility. […] The solution was then filtered by using 0.22 μm PES syringe filter equipped on a NORMJECT® (silicone free) syringe. The resulting filtrate was then checked for CFZ-API solubility recovery and stability on reverse phase high performance liquid chromatography (RP-HPLC). RP-HPLC was used to determine peak degradation as well as CFZ-API recovery through the use of a 3 to 5 point reference standard curve. Peak integration of standards was taken against standard buffer, 50% acetonitrile in water; while peak integration of formulation samples was taken against buffer of the formulation.

[3] = Visual observation of the cyclodextrin-free CFZ-API sample formulation (FIG. 1); settings: CFZ-API 2 mg/ml in water in the presence of phosphate buffer solution (PBS)
Source text: FIG. 1 illustrates a visual comparison of carfilzomib active ingredient in (a) water, (b) cyclodextrin (CAPTISOL®) and cyclodextrin-free formulation of the present invention
Carfilzomib (CFZ) is a proteasomal inhibitor and active ingredient of KYPROLIS®, a lyophilized drug product which is for the treatment of multiple myeloma. The current commercial formulation of KYPROLIS contains CAPTISOL®, which is a cyclodextrin used to help solubility the CFZ-API. The present invention provides a stable, cyclodextrin-free formulations for CFZ-API in an aqueous solution which is suitable for injection. FIG. 1 illustrates (a) insoluble CFZ-API in water in the presence of phosphate buffer solution (PBS) (left vial); (b) current commercial KYPROLIS formulation containing CAPTISOL (middle vial); and (c) the cyclodextrin free formulation of the invention (right vial). Each sample contains CFZ-API concentration of 2 mg/ml.

[4] = Lyophilization and bulking agent screening
Description: 1 mL CFZ-API liquid formulation fill as prepared above in 3 mL Schott 1A glass vial was loaded into a VirTis Genesis 12 EL lyophilizer (TS Systems LyoStar™-3, SP Scientific, Warminster, PA). The lyophilization cycle used for screening bulking agents consisted of holding shelf temperature at 4° C. for 30 minutes then cooling the shelf to −45° C. at 0.2° C./min. The annealing step was then performed at from −45° C. to −12° C. at 0.3° C./min. The primary drying and secondary drying shelf temperatures were −25° C. and 25° C., respectively. The heating rate applied to the primary and secondary drying were 0.2° C./min and 0.1° C./min, respectively.
Table 5 describes the initial lyophilization study results of formulations containing bulking agents such as PVP 12,000 MW, mannitol, or glycine pre and post lyophilization. PVP was selected as a co-solubilizing agent candidate because of high solubility of CFZ-API in PVP pre and post lyophilization as discussed above. […]
Results from the lyophilization and bulking agent screening produced mostly poor lyophilized cakes, however two selected bulking agent provided cakes that looked better in overall drug product presentation. […] The CFZ-API recovery of 1.8 mg/ml was lower than the expected of 2 mg/ml possibly due to the other components of the powder absorbing the water, making it more dilute than theoretically measured.

CFZ-API solubility [1]: highly soluble | CFZ-API solubilized [2]: ≥ 90% | Visual observation (FIG. 1) [3]: insoluble | CFZ-API solubility trend with PVP concentration ([4]; PVP 10% to 40%): higher CFZ-API solubility | CFZ-API solubility trend with PVP molecular weight ([4]; PVP 10,000, 12,000 and 17,000 MW): more soluble in lower MW PVP
Structure (SMILES): CC(C)C[C@H](NC(=O)[C@H](CCc1ccccc1)NC(=O)CN1CCOCC1)C(=O)N[C@@H](Cc1ccccc1)C(=O)N[C@@H](CC(C)C)C(=O)[C@@]1(C)CO1 [CFZ-API, Carfilzomib]
